The results in this text go back to ChEMBL document CHEMBL1135369, “Solid-phase synthesis of new saphenamycin analogues with antimicrobial activity” (2002).

In test [1] the test system is Bacillus subtilis. As to the kind of experiment: Effect on Bacillus subtilis in plate diffusion test; No growth inhibition. The class given is functional, organism-based.
In test [2] the test system is Bacillus subtilis. As to the kind of experiment: Effect on Bacillus subtilis in plate diffusion test; ++ indicates Srong well defined clearance zone. The class given is functional, organism-based.
For test [3], the system named is Bacillus subtilis. The test is described as follows: Minimum inhibitory concentration against Bacillus subtilis. The test is classed as functional.
Test [4] deals with Bacillus subtilis. The test is described as follows: Effect on Bacillus subtilis in plate diffusion test; + indicates clearance zones. The test is classed as functional, organism-based.

The structures appear in SMILES notation. Values after ≈ are worked out from the molar mass of the structure shown. Active and inactive are the calls of the source. No cut-off for these calls is given here.

Take `CC(OC(=O)c1c(F)cccc1F)c1cccc2nc3c(C(=O)O)cccc3nc12` (configuration not stated): in test [1], the Activity entry was “No growth inhibition”.

Turning to `Cc1ccc(OCc2ccccc2)c(C(=O)OC(C)c2cccc3nc4c(C(=O)O)cccc4nc23)c1` (configuration not stated), in test [1], the Activity entry was “No growth inhibition”.

For `Cc1ccc(C(=O)OC(C)c2cccc3nc4c(C(=O)O)cccc4nc23)c(OCc2ccccc2)c1` (configuration not stated), in test [1], the Activity result is “No growth inhibition”.

As to `CC(OC(=O)c1cccc(Cl)c1)c1cccc2nc3c(C(=O)OC(C)c4cccc5nc6c(C(=O)O)cccc6nc45)cccc3nc12` (configuration not stated), the Activity result in test [2] is “Srong well defined clearance zone”. For the same compound, in test [3], it took 0.72 µg/mL (≈ 1.1 µM) to inhibit growth (MIC).

As to `Cc1cccc(C(=O)OC(C)c2cccc3nc4c(C(=O)O)cccc4nc23)c1OCc1ccccc1` (configuration not stated), the Activity entry in test [4] was “clearance zones”. The same compound came in with an MIC in test [3] of 3.73 µg/mL (≈ 7.57 µM).

Consider `CC(OC(=O)c1c(Cl)cccc1Cl)c1cccc2nc3c(C(=O)O)cccc3nc12` (configuration not stated), for which the Activity result in test [4] is on record as “clearance zones”. The compound also displayed an MIC in test [3] of 2.71 µg/mL (≈ 6.14 µM).

Take `CC(OC(=O)c1ccccc1F)c1cccc2nc3c(C(=O)O)cccc3nc12` (configuration not stated): the Activity result in test [1] was “No growth inhibition”.

Regarding `CC(OC(=O)c1cccc(Cl)c1)c1cccc2nc3c(C(=O)O)cccc3nc12` (configuration not stated), the Activity entry in test [2] is recorded as “Srong well defined clearance zone”. In test [3], this compound gave an MIC of 0.07 µg/mL (≈ 0.172 µM).

Turning to `CC(OC(=O)c1ccccc1[N+](=O)[O-])c1cccc2nc3c(C(=O)O)cccc3nc12` (configuration not stated), the Activity result in test [4] is listed as “clearance zones”. The compound further had an MIC in test [3] of 2.49 µg/mL (≈ 5.97 µM).

On to `CC(OC(=O)c1ccc(F)cc1)c1cccc2nc3c(C(=O)O)cccc3nc12` (configuration not stated), for which, in test [4], the Activity entry is listed as “clearance zones”. In addition, the MIC in test [3] was determined as 3.93 µg/mL (≈ 10.1 µM).

For `CC(OC(=O)c1cccc(F)c1)c1cccc2nc3c(C(=O)O)cccc3nc12` (configuration not stated), the Activity result in test [1] was “No growth inhibition”.

Turning to `C[S+](C)[O-]`, the outcome in test [1] was inactive.

Take `CC(OC(=O)c1ccccc1Cl)c1cccc2nc3c(C(=O)O)cccc3nc12` (configuration not stated): in test [4], the Activity result was “clearance zones”. Also, in test [3], 3.35 µg/mL (≈ 8.23 µM) was the least that counted as inhibitory (MIC).

With `CC(OC(=O)c1c(Cl)cc(Cl)cc1Cl)c1cccc2nc3c(C(=O)O)cccc3nc12` (configuration not stated), the Activity result in test [2] is on record as “Srong well defined clearance zone”. For the same compound, it took 2.1 µg/mL (≈ 4.41 µM) to inhibit growth in test [3] (MIC).

The term MIC denotes the lowest concentration that inhibits growth of the organism. A higher MIC goes with a need for much substance.
